Source: patent US12697290B2, “Cosmetic compounds having two linked maleimide groups, cosmetic preparations, and method for treatment of keratin materials” (TARA BRANDS EUROPE S.L.U., priority 2022, dated 2026)

Assay: Thiol recombination: reaction of test compound with cysteine reagent, conversion into mono- and bis-Michael-addition products monitored by LC-MS
Conditions: 30° C.; for Conversion at 15 min, bis-Michael-addition product (bis) / Conversion at 15 min, mono-Michael-addition product (mono) / Conversion at 30 min, bis-Michael-addition product (bis) / Conversion at 30 min, mono-Michael-addition product (mono) / Conversion at 60 min, bis-Michael-addition product (bis) / Conversion at 60 min, mono-Michael-addition product (mono): test solution 1 (pH=5.4), 0.05M
Source text: N-Fmoc-cysteine (hereinafter C1) or N-Cbz-cysteine (hereinafter C2) were obtained by reduction of their cysteine counterparts via a literature known method. Adv. Syn. Catal., 2020, 362, 5093-5104. DOI: 10.1002/adsc.202000716. “OLAPLEX® No. 0 Intensive Bond Building Hair Treatment” is a commercially available product which comprises an active agent, water, phenoxyethanol and sodium benzoate. The active agent is hereinafter labelled “Olaplex active agent” or “reference compound #2”.
The compound to be tested (1 eq.) was dissolved in an aqueous media (0.02-0.05 M) and 4 eq. of cysteine reagent (N-Fmoc-cysteine (C1) or N-Cbz-cysteine (C2)) were added. Two test solutions were used as aqueous media: test solution 1 was a phosphate buffer (pH=5.4) with or without an emulsifier (e.g. Eumulgin) and test solution 2 was an aqueous solution containing 0.49% (w/w) sodium benzoate and 0.30% (w/w) citric acid with or without an emulsifier (e.g. Eumulgin).
To make the phosphate buffer a solution of 0.1-M solution of citric acid (use citric acid monohydrate) and a 0.2-M solution of Na2HPO4 (use Na2HPO4 or Na2HPO4*2H2O) were prepared and mixed with the following ratio: 44.25 mL/55.75 mL=mL 0.1M-citric acid/mL 0.2M Na2HPO4 to give a buffer solution with pH=5.4.
The tests were performed at ambient temperature of 30° C. under stirring with small magnetic stirrers in LC-MS vials or small glass vials (see picture 1). The reactions were performed under normal atmosphere. The reactions were monitored by LC-MS. The reaction scale was between 4 and 10 mg of tested compound. To calculate the conversion into products the ratio between cysteine reagent, mono-Michael-addition product (mono) and bis-Michael-addition product (bis) as shown in the following schemes were compared.

[1] = test solution 1 (pH=5.4)+1% eumulgin, 0.02M
[2] = test solution 1 (pH=5.4)+1% eumulgin, 0.02M, 60 min
[3] = test solution 1 (pH=5.4)+2.5% eumulgin, 0.02M
[4] = test solution 1 (pH=5.4)+2.5% eumulgin, 0.02M, 60 min
[5] = test solution 2+1% Eumulgin, 0.02M
[6] = test solution 2+1% Eumulgin, 0.02M, 60 min

| SMILES | Conversion at 15 min, bis-Michael-addition product (bis) | Conversion at 15 min, mono-Michael-addition product (mono) | Conversion at 30 min, bis-Michael-addition product (bis) | Conversion at 30 min, mono-Michael-addition product (mono) | Conversion at 60 min, bis-Michael-addition product (bis) (60 min) | Conversion at 60 min, mono-Michael-addition product (mono) (60 min) | Conversion at 30 min, bis [1] | Conversion at 30 min, mono [1] | Conversion at 60 min, bis [2] | Conversion at 60 min, mono [2] | Conversion at 30 min, bis [3] | Conversion at 60 min, bis [4] | Conversion at 5 h, bis [3] | Conversion at 30 min, bis [5] | Conversion at 30 min, mono [5] | Conversion at 60 min, bis [6] | Conversion at 60 min, mono [6] | Conversion at 60 min, mono and bis (test solution 2+1% Eumulgin, 0.02M, 60 min, mono and bis together, peaks are not separated in LC-MS) |
| --- | --- | --- | --- | --- | --- | --- | --- | --- | --- | --- | --- | --- | --- | --- | --- | --- | --- | --- |
| O=C1C=CC(=O)N1CCOCC12CC(COCCN3C(=O)C=CC3=O)(C1)C2 [SPC-TB-0002, 1,1′-(((bicyclo[1.1.1]pentane-1,3-diylbis(methylene))bis(oxy))bis(ethane-2,1-diyl))bis(1H-pyrrole-2,5-dione)] | 17% bis | 0% mono | 11% bis | 0% mono | 10% bis | 0% mono | – | – | – | – | – | – | – | – | – | – | – | – |
| O=C1C=CC(=O)N1CCCOCCOCCOCCCN1C(=O)C=CC1=O [Reference compound #1, reference compound] | 9% bis | 0% mono | 10% bis | 0% mono | 22% bis | 29% mono | 50% bis | 0% mono | 60% bis | 0% mono | 97% bis | 88% bis | 82% bis | 30% bis | 30% mono | 56% bis | 9% mono | – |
| O=C1C=CC(=O)N1CCCOCC12CCC(COCCCN3C(=O)C=CC3=O)(CC1)CC2 [SPC-TB-0003] | 29% bis | 9% mono | 77% bis | 10% mono | – | – | – | – | – | – | – | – | – | – | – | – | – | – |
| O=C1C=CC(=O)N1CCOCCOCC12CC(COCCOCCN3C(=O)C=CC3=O)(C1)C2 [SPC-TB-0007, 1,1′-(((((bicyclo[1.1.1]pentane-1,3-diylbis(methylene))bis(oxy))bis(ethane-2,1-diyl))bis(oxy))bis(ethane-2,1-diyl))bis(1H-pyrrole-2,5-dione)] | 24% bis | 47% mono | 22% bis | 66% mono | 50% bis | 37% mono | 53% bis | 20% mono | 67% bis | 9% mono | 79% bis | 79% bis | 73% bis | 26% bis | 26% mono | 44% bis | 10% mono | – |
| O=C1C=CC(=O)N1CCOCCOCCOCC12CC(COCCOCCOCCN3C(=O)C=CC3=O)(C1)C2 [SPC-TB-0013] | – | – | – | – | – | – | 67% bis | 16% mono | 66% bis | 15% mono | 57% bis | 57% bis | 46% bis | 36% bis | 10% mono | – | – | 50% mono and bis* |
| O=C1C=CC(=O)N1CCCOCC12CC(COCCCN3C(=O)C=CC3=O)(C1)C2 [SPC-TB-0001] | 15% bis | 0% mono | 28% bis | 0% mono | 21% bis | 0% mono | – | – | – | – | – | – | – | – | – | – | – | – |
